In US7858611B2, “Neurogenesis by modulating angiotensin” (BrainCells Inc., priority 2006, dated 2010):
Read-outs that look alike come from different tables or passages of the source.

What was measured:
[1] = tested on: human neural stem cells (hNSCs); assay: Neuronal differentiation of human neural stem cells (TUJ-1 antibody staining); assay type: cell-based; conditions: for EC50: Homo sapiens, Neural stem cell, read-out: EC50 for neuronal differentiation; for effect on neuronal differentiation: dose response
Excerpt: (§1) Mitogen-free test media with a positive control for neuronal differentiation was used along with basal media without growth factors as a negative control.
as §1, §1, §1, §1
(§2) Human neural stem cells (hNSCs) were isolated and grown in monolayer culture, plated, treated with varying concentrations of benazepril (test compound), and stained with TUJ-1 antibody, as described above. Mitogen-free test media with a positive control for neuronal differentiation was used along with basal media without growth factors as a negative control.
as §2, with “trandolapril” for “benazepril”, “described in” for “described”
as §2, with “candesartan” for “benazepril”, “described in” for “described”
as §2, with “telmisartan” for “benazepril”, “described in” for “described”
as §2, with “ibudilast and/or captopril” for “benazepril”, “compounds),” for “compound),”
as §2, with “enoximone and/or captopril” for “benazepril”, “compounds),” for “compound),”
as §2, with “ibudilast and/or candesartan” for “benazepril”, “compounds),” for “compound),”
as §2, with “baclofen and/or captopril” for “benazepril”, “compounds),” for “compound),”
Human neural stem cells (hNSCs) were isolated and grown in monolayer culture, plated, treated with varying concentrations of donepezil and/or captopril (test compounds), and stained with TUJ-1 antibody, as described above.

mGlu7 and mGlu8 = conditions: at higher concentrations (e.g., above 1 μM); cited from earlier work
[2] = tested on: KA, AMPA, and NMDA iGlu receptors; conditions: cited from earlier work
human mGlu3 receptors = human mGlu3 receptors (Homo sapiens, UniProt Q14832); conditions: in vitro; low nanomolar range; read-out: EC50 against human mGlu3 receptors; cited from earlier work
Sequence of human mGlu3 receptors (Q14832 23-879): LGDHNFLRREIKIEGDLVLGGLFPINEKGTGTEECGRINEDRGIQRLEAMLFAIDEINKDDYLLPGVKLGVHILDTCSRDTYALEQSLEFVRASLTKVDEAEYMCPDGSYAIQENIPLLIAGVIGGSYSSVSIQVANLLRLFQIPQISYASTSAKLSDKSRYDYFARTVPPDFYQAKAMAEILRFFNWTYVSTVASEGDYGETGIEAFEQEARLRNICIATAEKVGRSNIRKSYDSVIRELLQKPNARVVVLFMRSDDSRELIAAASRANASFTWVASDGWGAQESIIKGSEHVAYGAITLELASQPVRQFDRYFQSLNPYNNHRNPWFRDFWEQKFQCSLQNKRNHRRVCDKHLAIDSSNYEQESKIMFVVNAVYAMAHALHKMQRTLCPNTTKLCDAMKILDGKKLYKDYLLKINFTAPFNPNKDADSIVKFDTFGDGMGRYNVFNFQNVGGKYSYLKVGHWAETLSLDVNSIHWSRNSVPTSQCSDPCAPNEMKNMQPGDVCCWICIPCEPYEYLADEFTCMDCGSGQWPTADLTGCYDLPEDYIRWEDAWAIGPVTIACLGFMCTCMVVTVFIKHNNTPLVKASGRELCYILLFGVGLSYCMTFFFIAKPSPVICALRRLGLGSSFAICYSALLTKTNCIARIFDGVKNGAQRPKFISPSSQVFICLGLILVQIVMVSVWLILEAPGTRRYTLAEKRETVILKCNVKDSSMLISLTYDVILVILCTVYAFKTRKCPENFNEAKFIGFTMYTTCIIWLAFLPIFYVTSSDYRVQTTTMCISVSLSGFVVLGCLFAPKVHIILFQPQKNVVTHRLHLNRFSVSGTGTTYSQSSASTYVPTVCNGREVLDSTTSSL

human mGlu2 receptors = human mGlu2 receptors (Homo sapiens, UniProt Q14416); conditions: in vitro; low nanomolar range; read-out: EC50 against human mGlu2 receptors; cited from earlier work
Sequence of human mGlu2 receptors (Q14416 19-872): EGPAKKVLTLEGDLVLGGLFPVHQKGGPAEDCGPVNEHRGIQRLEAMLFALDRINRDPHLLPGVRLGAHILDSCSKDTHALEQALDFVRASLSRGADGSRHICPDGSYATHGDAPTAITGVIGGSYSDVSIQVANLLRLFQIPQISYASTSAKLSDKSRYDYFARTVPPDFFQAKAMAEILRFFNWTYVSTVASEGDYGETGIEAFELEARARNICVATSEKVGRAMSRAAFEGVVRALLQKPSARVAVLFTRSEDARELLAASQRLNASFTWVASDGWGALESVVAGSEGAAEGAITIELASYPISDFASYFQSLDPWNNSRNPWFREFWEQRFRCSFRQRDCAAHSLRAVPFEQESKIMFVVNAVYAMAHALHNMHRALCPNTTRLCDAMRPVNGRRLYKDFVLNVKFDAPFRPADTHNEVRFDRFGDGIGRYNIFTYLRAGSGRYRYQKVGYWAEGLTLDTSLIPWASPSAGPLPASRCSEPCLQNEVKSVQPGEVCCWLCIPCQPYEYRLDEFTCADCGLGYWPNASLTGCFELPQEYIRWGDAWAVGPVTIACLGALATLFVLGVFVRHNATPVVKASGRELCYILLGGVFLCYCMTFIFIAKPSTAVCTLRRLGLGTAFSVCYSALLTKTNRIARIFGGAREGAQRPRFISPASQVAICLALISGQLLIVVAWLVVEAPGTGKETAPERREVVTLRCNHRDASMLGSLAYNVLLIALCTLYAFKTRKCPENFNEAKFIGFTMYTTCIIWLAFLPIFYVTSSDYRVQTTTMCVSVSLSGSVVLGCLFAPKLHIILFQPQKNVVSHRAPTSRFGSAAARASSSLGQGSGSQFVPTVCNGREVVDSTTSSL

mGluR3 = mGluR3 (Homo sapiens, UniProt Q14832); conditions: read-out: IC50 against mGluR3; cited from earlier work
Sequence of mGluR3 (Q14832 23-879): as the sequence (Q14832 23-879) above

[3] = tested on: Group I or Group III receptors; conditions: at sub-mM concentrations; cited from earlier work
mGluR2 = mGluR2 (Homo sapiens, UniProt Q14416); conditions: read-out: IC50 against mGluR2; cited from earlier work
Sequence of mGluR2 (Q14416 19-872): as the sequence (Q14416 19-872) above

[4] = agent alone, FIG. 6-9, percentage of neuronal positive control, basal media values subtracted
[5] = agent alone, percentage of neuronal positive control, basal media values subtracted

Row | Structure (SMILES) | effect on neuronal differentiation ([1]; agent alone) | EC50 [1, 5] [µM] | further results
1 | CCOC(=O)C(CCc1ccccc1)NC(C)C(=O)N1C(C(=O)O)CC2CCCCC21 (stereo not shown) [trandolapril, 1-[2-[(1-ethoxycarbonyl-3-phenyl-propyl)amino]propanoyl]-2,3,3a,4,5,6,7,7a-octahydroindole-2-carboxylic acid] | promoted neuronal differentiation |  | EC50 [1, 4]: ~35 µM
2 | CCCc1nc(C)c2c(=O)[nH]c(-c3cc(S(=O)(=O)N4CCN(CC)CC4)ccc3OCC)nn12 [vardenafil] |  | 8.6 | 
3 | N[C@](CC1c2ccccc2Oc2ccccc21)(C(=O)O)[C@H]1C[C@@H]1C(=O)O [LY341495, (2S)-2-amino-2-(1S,2S-2-carboxycycloprop-1-yl)-3-(xanth-9-yl)propanoic acid] |  |  | activity against mGlu7 and mGlu8 (mGlu7 and mGlu8): antagonist activity; activity against KA, AMPA, and NMDA iGlu receptors [2]: substantially inactive
4 | NCC(CC(=O)O)c1ccc(Cl)cc1 (stereo not shown) [baclofen] |  | 3.2 | 
5 | CSc1ccc(C(=O)c2[nH]c(=O)[nH]c2C)cc1 [enoximone] |  | 6.8 | 
6 | CC(C)C(=O)c1c(C(C)C)nn2ccccc12 [ibudilast] |  | 6.2 | 
7 | CC(=O)SC[C@@H](C)C(=O)N1CCC[C@H]1C(=O)N[C@@H](Cc1ccccc1)C(=O)O [alacepril, 1-(D-3-acetylthio-2-methylpropanoyl)-L-prolyl-L-phenylalanine] | promoted neuronal differentiation | 13 | 
8 | CCCCc1nc(Cl)c(CO)n1Cc1ccc(-c2ccccc2-c2nnn[nH]2)cc1 [losartan, [2-butyl-5-chloro-3-[[4-[2-(2H-tetrazol-5-yl)phenyl]phenyl]methyl]-3H-imidazol-4-yl]methanol] | promoted neuronal differentiation | 0.9 | 
9 | N[C@@]1(C(=O)O)CO[C@H]2[C@H](C(=O)O)[C@H]21 [LY379268, (−)-2-oxa-4-aminobicyclohexane-4,6-dicarboxylic acid] |  |  | EC50 (human mGlu3 receptors): < 0.01 µM; EC50 (human mGlu2 receptors): < 0.01 µM
10 | COc1ccc(C2CNC(=O)C2)cc1OC1CCCC1 (stereo not shown) [rolipram] |  | 2.3 | 
11 | NC1(C(=O)O)CCc2cc(P(=O)(O)O)ccc21 (racemic) [APICA, (RS)-1-amino-5-phosphonoindan-1-carboxylic acid] |  |  | IC50 (mGluR3): ~30 µM; activity against Group I or Group III receptors [3]: no appreciable activity; IC50 (mGluR2): ~30 µM
12 | CCOc1nc2cccc(C(=O)O)c2n1Cc1ccc(-c2ccccc2-c2nnn[nH]2)cc1 [candesartan, 2-ethoxy-3-[[4-[2-(2H-tetrazol-5-yl)phenyl]phenyl]methyl]-3H-benzoimidazole-4-carboxylic acid] | promoted neuronal differentiation | 2.2 | EC50 [1, 4]: ~0.84 µM
13 | CCOC(=O)[C@H](CCc1ccccc1)N[C@@H](C)C(=O)N1CCC[C@H]1C(=O)O [enalapril, (S)-1-[N-[1-(ethoxycarbonyl)-3-phenylpropyl]-1-alanyl]-1-proline] | promoted neuronal differentiation | 0.5 | 
14 | CCCc1nc2c(C)cc(-c3nc4ccccc4n3C)cc2n1Cc1ccc(-c2ccccc2C(=O)O)cc1 [telmisartan, 2-[4-[[4-methyl-6-(1-methylbenzoimidazol-2-yl)-2-propyl-benzoimidazol-1-yl]methyl]phenyl]benzoic acid] | promoted neuronal differentiation | 0.06 | EC50 [1, 4]: ~0.03 µM
15 | NCCCC[C@H](N[C@@H](CCc1ccccc1)C(=O)O)C(=O)N1CCC[C@H]1C(=O)O [lisinopril, (S)-1-(N(sup 2)-(1-carboxy-3-phenylpropyl)-L-lysyl)-L-proline] | promoted neuronal differentiation | 9.1 | 
16 | Cn1c(=O)c2[nH]cnc2n(C)c1=O [theophylline] |  | 16.4 | 
17 | CCOC(=O)[C@H](CCc1ccccc1)N[C@H]1CCc2ccccc2N(CC(=O)O)C1=O [benazepril, 2-[4-(1-ethoxycarbonyl-3-phenyl-propyl)amino-5-oxo-6-azabicyclo[5.4.0]undeca-7,9,11-trien-6-yl]acetic acid] | promoted neuronal differentiation |  | EC50 [1, 4]: 3.3 µM
18 | COc1cc2c(cc1OC)C(=O)C(CC1CCN(Cc3ccccc3)CC1)C2 (stereo not shown) [donepezil] |  |  | EC50 [1]: 2 µM
19 | C[C@H](CS)C(=O)N1CCC[C@H]1C(=O)O [captopril, 1-[(2S)-3-mercapto-2-methylpropionyl]-1-proline] | promoted neuronal differentiation | 3.8 | 
